Where a name gives a salt, the structure may show the parent alone.
Experiments:
[1] = tested on: MEF; assay: cells; parameters: species or system L929sAhFas or MEF; protection from TNF-induced cell death, percentage PI-positive nuclei by high-content imaging; conditions: Mus musculus, mTNF + BV6, inhibition of induced cell death
Protocol: (c,d) HT-29 and Jurkat FADD−/− cells were pretreated for 1 h with DMSO, Nec-1 or Sorafenib (concentrations as indicated) and stimulated for 6 h with 30 ng/ml hTNF, 1 μM BV6 and 30 μM zVAD (HT-29) or stimulated for 10 h with 100 ng/ml hTNF (Jurkat FADD−/−). (a-d) Data were normalized to DMSO-treated control cells and represent the mean value±S.E.M. of three independent experiments. Toxic concentrations were removed from the analysis. L929sAhFas and MEF cells were stained with Hoechst and PI and percentage PI-positive nuclei was determined using high-content image analysis (BD pathway Bioimager). For HT-29 and Jurkat FADD−/− cells, cell death was determined by PI staining and flow cytometry. […] Cell death in AML cells was determined by PI staining and flow cytometry. […] Smac mimetic BV6[34] instead of TAK1i was used as a sensitizer for testing of mouse embryonic fibroblasts (MEF) and human cell lines. […] Since Sorafenib is used to treat AML,[27] we also included two AML cell lines to investigate whether it alters the sensitivity of these cells to necroptotic stimuli (BV6 in the presence of zVAD-fmk).[34]

[2] = tested on: L929sAhFas; assay: cells; parameters: high-content necroptosis screen, percentage PI-positive nuclei as percent of DMSO plus stimulus control; conditions: mTNF-induced cell death, validation screen; read-out: Validation screen IC50 (µM) (TNF)
Description: To identify novel inhibitors or regulators of necroptosis, 500 small compounds from libraries targeting autophagy, kinases, phosphatases, proteases and redox balance were screened for their ability to block TNF-induced necroptosis in murine L929sAhFas cells. Three conditions were used to induce necroptosis in L929 cells: TNF alone, TNF+TAK1 inhibitor (TAK1i) and TNF+zVAD-fmk, a pan-caspase inhibitor. Inhibition of TAK1 or caspases sensitizes to necroptosis.[13], [32] Necroptosis, measured as the percentage of PI-positive nuclei normalized to the plate-specific DMSO control, was determined for each compound (Supplementary Figure 1A). Z’ values for the TNF- and TNF+TAK1i-induced cell death assay were 0.498 and 0.919, respectively (Supplementary Figures 2A and B), indicating good assay performance. Sorafenib was identified as an effective inhibitor of both TNF- and TNF+TAK1i-induced necroptosis (Figure 1a). […] In an independent screening with 437 FDA-approved drugs and TNF+zVAD-fmk as necroptosis trigger in L929 cells (Supplementary Figure 1B), Sorafenib was also shown to be a potent inhibitor (Figure 1b). […] After compound treatment, L929sAhFas (a) or L929 (b) cells were stimulated with mTNF (T), mTNF+Tak1i (TiT) or mTNF+zVAD (zVT) (Supplementary Figure 1A and B). (a) Cell death percentage (% PI-positive nuclei) or cell loss was calculated as percent of control (DMSO+stimulus). Green points marked by the green dotted line represent a selection of kinase inhibitors from the screening on L929sAhFas cells (Supplementary Table 1), that are only slightly protective in the TNF-stimulated condition. (b) Cell loss (luminescence-based readout for ATP) was calculated as percent of control (DMSO+stimulus). […] In stimulated conditions, % PI-positive nuclei was determined as % of DMSO control. Data represent mean values±S.E.M. of two independent experiments. Cells were stained with Hoechst and PI and percentage PI-positive nuclei was determined using high-content image analysis (BD pathway Bioimager). (d) L929sAhFas cells were treated with Sorafenib (concentration as indicated) for 24 h. Then, stimulus was removed, 50 cells/condition seeded and colonies counted with crystal violet staining after 10 days incubation. Quantification was performed using ImageJ. n=2, a representative experiment is shown Legends supplementary figures Supplementary Figure S1. Schemes of workflow screening assays in L929 cell lines. (A) Scheme of the workflow of a high-content screening assay on L929sAhFas cells using mTNF (T) and mTNF+Tak1i ((5Z)-7-Oxozeaenol) (TiT) to induce necroptotic cell death. Nec-1 and zVAD-fmk were used as protective and sensitizing benchmarks, respectively, on all plates. (B) Scheme of the workflow of a CellTiter-Glo luminescent cell viability screening assay on L929 cells using mTNF+zVAD (zVT) to induce necroptotic cell death. Supplementary Figure S2. Z’ calculation for cell death screening assays in L929 cells. (A) Z’ calculation for cell death screening assay (Fig. 1A) in mTNF-stimulated L929sAhFas cells. (B) Z’ calculation for cell death screening assay (Fig. 1A) in L929sAhFas cells stimulated with mTNF + Taki.

With CNC(=O)c1cc(Oc2ccc(NC(=O)Nc3ccc(Cl)c(C(F)(F)F)c3)cc2)ccn1 [Sorafenib tosylate] the IC50 [1] was 2200 ± 470 nM and the IC50 [2] was 3.25 µM.

— article PMC5520944 (Cell Death & Disease, 2017)
